{"source": "ChEMBL document CHEMBL4411321", "about": "“Discovery of Potent, Selective, and Orally Bioavailable Estrogen-Related Receptor-γ Inverse Agonists To Restore the Sodium Iodide Symporter Function in Anaplastic Thyroid Cancer” (J Med Chem, 2019)", "key": {"CYP1A2": {"target": "T1, CYP1A2 (Homo sapiens, UniProt P05177)", "T1 sequence (P05177 whole entry)": "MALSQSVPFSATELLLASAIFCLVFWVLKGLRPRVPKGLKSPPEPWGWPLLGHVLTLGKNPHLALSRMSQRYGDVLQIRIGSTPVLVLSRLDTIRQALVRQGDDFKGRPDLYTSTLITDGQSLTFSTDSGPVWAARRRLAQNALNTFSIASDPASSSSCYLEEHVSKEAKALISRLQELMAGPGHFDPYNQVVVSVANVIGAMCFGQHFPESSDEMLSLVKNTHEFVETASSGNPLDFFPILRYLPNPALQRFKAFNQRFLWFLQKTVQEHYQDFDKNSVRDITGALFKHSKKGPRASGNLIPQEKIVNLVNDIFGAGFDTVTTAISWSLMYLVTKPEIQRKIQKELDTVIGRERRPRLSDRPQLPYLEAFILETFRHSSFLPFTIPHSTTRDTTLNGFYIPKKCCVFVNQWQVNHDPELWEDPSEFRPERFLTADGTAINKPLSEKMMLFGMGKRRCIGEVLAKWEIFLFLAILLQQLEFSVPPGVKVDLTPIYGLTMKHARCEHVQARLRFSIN", "assay": "Inhibition of CYP1A2 in human liver microsomes assessed as reduction in phenacetin O-deethylase activity at 10 uM preincubated for 5 mins followed by NADPH addition and measured after 15 mins by LC-MS/MS analysis relative to control", "format": "ADME", "conditions": "probe phenacetin (O-deethylation)"}, "CYP2C9": {"target": "CYP2C9 (Homo sapiens, UniProt P11712)", "sequence (P11712 whole entry)": "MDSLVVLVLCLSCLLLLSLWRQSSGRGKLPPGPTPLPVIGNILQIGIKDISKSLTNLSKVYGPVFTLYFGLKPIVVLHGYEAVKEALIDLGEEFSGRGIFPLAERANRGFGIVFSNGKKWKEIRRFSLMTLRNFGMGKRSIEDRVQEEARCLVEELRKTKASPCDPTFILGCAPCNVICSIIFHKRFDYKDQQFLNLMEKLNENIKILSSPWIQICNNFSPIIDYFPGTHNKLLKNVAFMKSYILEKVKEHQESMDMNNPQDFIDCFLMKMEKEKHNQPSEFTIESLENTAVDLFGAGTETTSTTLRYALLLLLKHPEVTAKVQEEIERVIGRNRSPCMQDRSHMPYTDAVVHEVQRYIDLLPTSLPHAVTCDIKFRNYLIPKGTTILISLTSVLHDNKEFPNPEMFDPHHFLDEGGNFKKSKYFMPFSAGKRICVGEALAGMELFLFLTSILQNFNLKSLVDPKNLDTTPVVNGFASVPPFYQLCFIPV", "assay": "Inhibition of CYP2C9 in human liver microsomes assessed as reduction in tolbutamide 4-hydroxylase activity at 10 uM preincubated for 5 mins followed by NADPH addition and measured after 15 mins by LC-MS/MS analysis relative to control", "format": "ADME", "conditions": "probe tolbutamide (4-hydroxylation)"}, "CYP2C19": {"target": "CYP2C19 (Homo sapiens, UniProt P33261)", "sequence (P33261 whole entry)": "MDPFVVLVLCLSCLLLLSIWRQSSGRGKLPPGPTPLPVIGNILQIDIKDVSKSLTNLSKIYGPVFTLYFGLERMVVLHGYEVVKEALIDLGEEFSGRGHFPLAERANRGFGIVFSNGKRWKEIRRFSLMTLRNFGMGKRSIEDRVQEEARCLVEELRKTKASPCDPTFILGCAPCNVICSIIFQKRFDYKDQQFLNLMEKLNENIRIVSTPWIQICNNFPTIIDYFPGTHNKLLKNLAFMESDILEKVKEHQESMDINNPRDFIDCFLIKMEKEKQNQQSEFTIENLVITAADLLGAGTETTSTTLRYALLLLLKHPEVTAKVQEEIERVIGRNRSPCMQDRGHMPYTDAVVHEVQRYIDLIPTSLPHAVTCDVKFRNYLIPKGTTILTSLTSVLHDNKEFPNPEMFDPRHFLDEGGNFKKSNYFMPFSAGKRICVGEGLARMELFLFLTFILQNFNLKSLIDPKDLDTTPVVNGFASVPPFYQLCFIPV", "assay": "Inhibition of CYP2C19 in human liver microsomes assessed as reduction in S-mephenytoin 4-hydroxylase activity at 10 uM preincubated for 5 mins followed by NADPH addition and measured after 15 mins by LC-MS/MS analysis relative to control", "format": "ADME", "conditions": "probe S-mephenytoin (4-hydroxylation)"}, "CYP2D6": {"target": "CYP2D6 (Homo sapiens, UniProt P10635)", "sequence (P10635 whole entry)": "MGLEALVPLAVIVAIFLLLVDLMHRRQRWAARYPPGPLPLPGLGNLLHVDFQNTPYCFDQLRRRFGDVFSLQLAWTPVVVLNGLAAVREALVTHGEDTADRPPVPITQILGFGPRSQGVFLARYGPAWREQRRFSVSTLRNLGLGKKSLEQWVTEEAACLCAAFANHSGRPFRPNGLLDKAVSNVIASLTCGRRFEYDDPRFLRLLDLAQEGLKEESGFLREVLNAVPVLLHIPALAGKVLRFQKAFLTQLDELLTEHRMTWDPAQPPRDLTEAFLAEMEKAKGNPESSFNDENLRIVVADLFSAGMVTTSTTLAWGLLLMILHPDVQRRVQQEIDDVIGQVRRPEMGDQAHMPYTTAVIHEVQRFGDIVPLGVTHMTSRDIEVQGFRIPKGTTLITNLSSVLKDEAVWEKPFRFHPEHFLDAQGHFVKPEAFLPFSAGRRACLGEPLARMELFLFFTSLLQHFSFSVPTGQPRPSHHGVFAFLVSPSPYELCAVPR", "assay": "Inhibition of CYP2D6 in human liver microsomes assessed as reduction in dextromethorphan O-demethylase activity at 10 uM preincubated for 5 mins followed by NADPH addition and measured after 15 mins by LC-MS/MS analysis relative to control", "format": "ADME", "conditions": "probe dextromethorphan (O-demethylation)"}, "CYP3A4": {"target": "CYP3A4 (Homo sapiens, UniProt P08684)", "sequence (P08684 whole entry)": "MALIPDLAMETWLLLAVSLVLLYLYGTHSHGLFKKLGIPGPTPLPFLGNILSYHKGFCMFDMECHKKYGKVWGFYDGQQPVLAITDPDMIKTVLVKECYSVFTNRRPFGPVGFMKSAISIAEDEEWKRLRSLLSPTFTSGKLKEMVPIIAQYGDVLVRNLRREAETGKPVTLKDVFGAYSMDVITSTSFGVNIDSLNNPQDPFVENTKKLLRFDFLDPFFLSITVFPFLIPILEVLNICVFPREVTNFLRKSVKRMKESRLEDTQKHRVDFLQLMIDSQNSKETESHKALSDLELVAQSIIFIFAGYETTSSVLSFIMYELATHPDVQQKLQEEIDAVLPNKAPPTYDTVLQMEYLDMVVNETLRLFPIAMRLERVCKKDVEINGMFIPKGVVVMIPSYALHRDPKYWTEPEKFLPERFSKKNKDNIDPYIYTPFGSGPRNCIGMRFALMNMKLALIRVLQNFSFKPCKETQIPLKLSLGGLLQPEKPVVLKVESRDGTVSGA", "assay": "Inhibition of CYP3A4 in human liver microsomes assessed as reduction in midazolam 1-hydroxylase activity at 10 uM preincubated for 5 mins followed by NADPH addition and measured after 15 mins by LC-MS/MS analysis relative to control", "format": "ADME", "conditions": "probe midazolam (1-hydroxylation)"}, "[1]": {"assay": "Metabolic stability in human liver microsomes assessed as compound remaining at 1 uM after 30 mins in presence of NADPH regeneration system by LC-MS/MS analysis", "format": "ADME, Microsome", "conditions": "read-out: Stability"}, "[2]": {"assay": "Metabolic stability in dog liver microsomes assessed as compound remaining at 1 uM after 30 mins in presence of NADPH regeneration system by LC-MS/MS analysis", "format": "ADME, Canis lupus familiaris, Microsome", "conditions": "read-out: Stability"}, "[3]": {"assay": "Metabolic stability in rat liver microsomes assessed as compound remaining at 1 uM after 30 mins in presence of NADPH regeneration system by LC-MS/MS analysis", "format": "ADME, Microsome", "conditions": "read-out: Stability"}, "[4]": {"assay": "Metabolic stability in mouse liver microsomes assessed as compound remaining at 1 uM after 30 mins in presence of NADPH regeneration system by LC-MS/MS analysis", "format": "ADME, Microsome", "conditions": "read-out: Stability"}, "[5]": {"assay": "Effective permeability of the compound at 10 uM after 5 hrs by PAMPA", "format": "ADME", "conditions": "read-out: Peff"}, "[6]": {"assay": "AUC (0 to infinity) in Sprague-Dawley rat at 1 mg/kg, iv by LC-MS/MS analysis", "format": "ADME, organism-based", "parameters": "dose 1 mg/kg, time infinity, route intravenous", "conditions": "in vivo"}, "[7]": {"assay": "AUC (0 to infinity) in Sprague-Dawley rat at 9 to 10 mg/kg, po via gavage by LC-MS/MS analysis", "format": "ADME, organism-based", "conditions": "in vivo"}, "[8]": {"assay": "Tmax in Sprague-Dawley rat at 9 to 10 mg/kg, po via gavage by LC-MS/MS analysis", "format": "ADME, organism-based", "conditions": "in vivo"}, "[9]": {"target": "T2, Estrogen-related receptor gamma (Homo sapiens) (UniProt P62508)", "T2 sequence (whole entry)": "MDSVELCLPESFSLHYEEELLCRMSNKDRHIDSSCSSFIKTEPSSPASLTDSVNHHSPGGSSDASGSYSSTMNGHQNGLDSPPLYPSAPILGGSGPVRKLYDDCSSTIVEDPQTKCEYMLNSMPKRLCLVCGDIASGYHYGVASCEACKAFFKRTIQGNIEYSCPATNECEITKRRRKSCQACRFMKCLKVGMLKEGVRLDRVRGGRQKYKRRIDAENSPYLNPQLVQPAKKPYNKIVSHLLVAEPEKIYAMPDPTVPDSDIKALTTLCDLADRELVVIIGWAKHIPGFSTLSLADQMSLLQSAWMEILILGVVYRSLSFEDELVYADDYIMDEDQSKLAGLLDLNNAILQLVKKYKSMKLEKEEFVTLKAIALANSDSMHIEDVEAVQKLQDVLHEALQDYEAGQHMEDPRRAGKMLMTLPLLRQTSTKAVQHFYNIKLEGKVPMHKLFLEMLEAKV", "assay": "Inverse agonist activity at ERRgamma in human BHT101 cells assessed as restoration of sodium iodide symporter function by measuring increase in radioiodide avidity at 6 to 12 uM after 24 hrs by gamma counting analysis based [125-I]-iodide uptake assay", "format": "cell-based"}, "[10]": {"target": "T2, Estrogen-related receptor gamma (Homo sapiens)", "assay": "Inverse agonist activity at ERRgamma in human CAL62 cells assessed as restoration of sodium iodide symporter function by measuring increase in radioiodide avidity at 6 to 12 uM after 24 hrs by gamma counting analysis based [125-I]-iodide uptake assay", "format": "cell-based"}, "[11]": {"target": "T2, Estrogen-related receptor gamma (Homo sapiens)", "assay": "Inverse agonist activity at ERRgamma in human BHT101 cells assessed as restoration of sodium iodide symporter function by measuring increase in radioiodide avidity at 6 to 12 uM in presence of NIS inhibitor KClO4 after 24 hrs by gamma counting analysis based [125-I]-iodide uptake assay", "format": "cell-based"}, "[12]": {"target": "T2, Estrogen-related receptor gamma (Homo sapiens)", "assay": "Inverse agonist activity at ERRgamma in human CAL62 cells assessed as restoration of sodium iodide symporter function by measuring increase in radioiodide avidity at 6 to 12 uM in presence of NIS inhibitor KClO4 after 24 hrs by gamma counting analysis based [125-I]-iodide uptake assay", "format": "cell-based"}, "[13]": {"target": "T2, Estrogen-related receptor gamma (Homo sapiens)", "assay": "Inverse agonist activity at ERRgamma in human CAL62 cells assessed as increase in NIS mRNA expression at 6 to 12 uM by RT-PCR analysis", "format": "cell-based"}, "[14]": {"target": "T2, Estrogen-related receptor gamma (Homo sapiens)", "assay": "Inverse agonist activity at ERRgamma in human CAL62 cells assessed as increase in TSHR mRNA expression at 6 to 12 uM by RT-PCR analysis", "format": "cell-based"}, "[15]": {"target": "T2, Estrogen-related receptor gamma (Homo sapiens)", "assay": "Inverse agonist activity at ERRgamma in human CAL62 cells assessed as increase in TPO mRNA expression at 6 to 12 uM by RT-PCR analysis", "format": "cell-based"}, "[16]": {"target": "T2, Estrogen-related receptor gamma (Homo sapiens)", "assay": "Inverse agonist activity at ERRgamma in human CAL62 cells assessed as increase in TG mRNA expression at 6 to 12 uM by RT-PCR analysis", "format": "cell-based"}, "[17]": {"target": "T2, Estrogen-related receptor gamma (Homo sapiens)", "assay": "Inverse agonist activity at ERRgamma in human BHT101 cells assessed as increase in NIS mRNA expression at 6 to 12 uM by RT-PCR analysis", "format": "cell-based"}, "[18]": {"target": "T2, Estrogen-related receptor gamma (Homo sapiens)", "assay": "Inverse agonist activity at ERRgamma in human BHT101 cells assessed as increase in TSHR mRNA expression at 6 to 12 uM by RT-PCR analysis", "format": "cell-based"}, "[19]": {"target": "T2, Estrogen-related receptor gamma (Homo sapiens)", "assay": "Inverse agonist activity at ERRgamma in human BHT101 cells assessed as increase in TPO mRNA expression at 6 to 12 uM by RT-PCR analysis", "format": "cell-based"}, "[20]": {"target": "T2, Estrogen-related receptor gamma (Homo sapiens)", "assay": "Inverse agonist activity at ERRgamma in human BHT101 cells assessed as increase in TG mRNA expression at 6 to 12 uM by RT-PCR analysis", "format": "cell-based"}, "CAL-62": {"system": "CAL-62", "assay": "Reduction in colony formation in human CAL62 cells at 6 uM after 24 hrs by crystal violet-based assay", "format": "ADME, cell-based", "conditions": "cal-62, 24 h"}, "BHT-101": {"system": "BHT-101", "assay": "Reduction in colony formation in human BHT101 cells at 6 uM after 24 hrs by crystal violet-based assay", "format": "ADME, cell-based", "conditions": "bht-101, 24 h"}, "[21]": {"assay": "Potentiation of radio-iodine avidity in human CAL62 cells xenografted mouse assessed as increase in radio-iodine accumulation in tumor at 200 mg/kg, po dosed once daily for 6 days followed by 50 uCi 124-iodine dosing and measured after 2 hrs by PET/CT imaging analysis", "format": "ADME, organism-based, Neoplasm", "conditions": "in vivo"}, "[22]": {"assay": "Genotoxicity in Salmonella typhimurium at 2 mM by mini Ames test", "format": "toxicity", "conditions": "salmonella enterica subsp. enterica serovar typhimurium, 2000 µM"}, "in vivo": {"assay": "in vivo", "conditions": "Sprague-Dawley, rat, iv, 1 mg/kg"}}, "note": "Activity calls are given as the source filed them. No cut-off for these calls is given here.", "data": [{"smiles": "CC(C)N1CCN(c2ccc(/C(=C(/CCCO)c3ccccc3)c3cccc(O)c3)cc2)CC1.Cl.Cl", "values": [{"measurement": "inhibition at 0.25 h, 10 µM", "setting": "CYP1A2", "result": 0, "unit": "%"}, {"measurement": "inhibition at 0.25 h, 10 µM", "setting": "CYP2C9", "result": 24.1, "unit": "%"}, {"measurement": "inhibition at 0.25 h, 10 µM", "setting": "CYP2C19", "result": 0, "unit": "%"}, {"measurement": "inhibition at 0.25 h, 10 µM", "setting": "CYP2D6", "result": 34, "unit": "%"}, {"measurement": "inhibition at 0.25 h, 10 µM", "setting": "CYP3A4", "result": 53.3, "unit": "%"}, {"measurement": "remaining at 0.5 h, 1 µM", "setting": "[1]", "result": 65.4, "unit": "%"}, {"measurement": "remaining at 0.5 h, 1 µM", "setting": "[2]", "result": 61.2, "unit": "%"}, {"measurement": "remaining at 0.5 h, 1 µM", "setting": "[3]", "result": 54.9, "unit": "%"}, {"measurement": "remaining at 0.5 h, 1 µM", "setting": "[4]", "result": 26.9, "unit": "%"}, {"measurement": "Papp at 5 h, 10 µM", "setting": "[5]", "result": 1.29, "unit": "×10⁻⁶ cm/s"}, {"measurement": "AUC(0-inf)", "setting": "[6]", "result": 1, "unit": "µM·h"}, {"measurement": "AUC(0-inf)", "setting": "[7]", "result": 4.71, "unit": "µM·h"}, {"measurement": "Tmax", "setting": "[8]", "result": 1.7, "unit": "h"}, {"measurement": "Activity", "setting": "[9]", "result": "Active"}, {"measurement": "Activity", "setting": "[10]", "result": "Active"}, {"measurement": "Activity", "setting": "[11]", "result": "inactive"}, {"measurement": "Activity", "setting": "[12]", "result": "inactive"}, {"measurement": "Activity", "setting": "[13]", "result": "Dose-dependent effect"}, {"measurement": "Activity", "setting": "[14]", "result": "Dose-dependent effect"}, {"measurement": "Activity", "setting": "[15]", "result": "Dose-dependent effect"}, {"measurement": "Activity", "setting": "[16]", "result": "Dose-dependent effect"}, {"measurement": "Activity", "setting": "[17]", "result": "Active"}, {"measurement": "Activity", "setting": "[18]", "result": "Active"}, {"measurement": "Activity", "setting": "[19]", "result": "Active"}, {"measurement": "Activity", "setting": "[20]", "result": "Active"}, {"measurement": "Activity", "setting": "CAL-62", "result": "Non-Toxic"}, {"measurement": "Activity", "setting": "BHT-101", "result": "Non-Toxic"}, {"measurement": "Activity", "setting": "[21]", "result": "Active"}, {"measurement": "Activity", "setting": "[22]", "result": "Non-Toxic"}, {"measurement": "AUC", "setting": "in vivo", "result": 0.99, "unit": "µM·h"}]}]}
